This is an account of results in patent US11484608B2, “Non-invasive assessment of hepatic mitochondrial metabolism by positional isotopomer NMR tracer analysis (PINTA)” (YALE UNIVERSITY, priority 2017, dated 2022).

The test system of test [1] is primary mouse hepatocytes. Put plainly: In vitro glucose production, VPC and lipolysis in isolated hepatocytes. It is filed as cell-based. To be noted: for glucagon-stimulated VPC flux / glucagon-stimulated glucose production: WT hepatocytes, 100 nM glucagon, 8 hr; for effect of glucagon to stimulate intrahepatic lipolysis: isolated hepatocytes. On the procedure:
For in vitro glucose production and lipolysis studies, primary mouse hepatocytes were isolated by the Yale Liver Center. Following removal of cell debris by Percoll density gradient centrifugation, cells were plated on 6-well collagen-I coated dishes (4.0×10^5 cells/well) in 2 ml recovery media (DMEM High Glucose containing 10% FBS, 2% penicillin-streptomycin, 100 nM dexamethasone, 1 nM insulin, and 10 mM HEPES). After incubation for 6 hr at 37° C. and 5% CO2, the attached cells were washed once in 1×PBS and then incubated overnight in 2 ml Low Glucose Culture Media (DMEM Low Glucose supplemented with 10% FBS, 2% penicillin-streptomycin and 10 mM HEPES for glucose production studies) or Serum Free Low Glucose Culture Media (DMEM Low Glucose supplemented with 0.5% fatty acid free BSA, 2% penicillin-streptomycin and 10 mM HEPES for lipolysis assays). […] After incubation for 8 hr at 37° C. and 5% CO2, cell culture media was collected for analysis of glucose, NEFA, and glycerol concentrations as described above. VPC was determined by measuring VPC/VEGP by PINTA as described above using 300 μL of the collected media, and multiplying this ratio by the measured glucose production rate. In a subset of studies, cells were incubated for 8 hr during the glucose production assay in media containing one of the following agents (all dissolved in 0.5% DMSO), or 0.5% DMSO vehicle: 20 μM ET-18-OCH3 (Santa Cruz), 100 μM U-73122 (Sigma), 30 nM thapsigargin (Sigma), 100 nM vasopressin (Sigma) 50 μM 2-APB (R&D Systems), 70 μM caffeine (Sigma), 1 mM malic enzyme inhibitor hydroxymalonate (Sigma). To inhibit PKA, hepatocytes were incubated in H-89 […] hydrate (Sigma, 25 μM) dissolved in media, or media lacking H-89 as a control. In the insulin treatment studies, hepatocytes were incubated in 1 nM insulin with 5% BSA and glucose production media for the duration of the glucose production assay. In the in vitro atglistatin study, hepatocytes were incubated in 10 μM atglistatin in 0.1% EtOH, or 0.1% EtOH vehicle. All values were normalized to total protein content determined from whole-cell lysates by a BCA protein assay (Thermo Fisher Scientific) according to the manufacturer's instructions and expressed as fold change verses vehicle-treated cells.

The target in another test is T1, glycogen phosphorylase (Rattus norvegicus, UniProt P09811).
T1 construct: from tissue; host or cells: live rat, in vivo (IV dosing); liver is the tissue discussed
T1 sequence (P09811 1-850): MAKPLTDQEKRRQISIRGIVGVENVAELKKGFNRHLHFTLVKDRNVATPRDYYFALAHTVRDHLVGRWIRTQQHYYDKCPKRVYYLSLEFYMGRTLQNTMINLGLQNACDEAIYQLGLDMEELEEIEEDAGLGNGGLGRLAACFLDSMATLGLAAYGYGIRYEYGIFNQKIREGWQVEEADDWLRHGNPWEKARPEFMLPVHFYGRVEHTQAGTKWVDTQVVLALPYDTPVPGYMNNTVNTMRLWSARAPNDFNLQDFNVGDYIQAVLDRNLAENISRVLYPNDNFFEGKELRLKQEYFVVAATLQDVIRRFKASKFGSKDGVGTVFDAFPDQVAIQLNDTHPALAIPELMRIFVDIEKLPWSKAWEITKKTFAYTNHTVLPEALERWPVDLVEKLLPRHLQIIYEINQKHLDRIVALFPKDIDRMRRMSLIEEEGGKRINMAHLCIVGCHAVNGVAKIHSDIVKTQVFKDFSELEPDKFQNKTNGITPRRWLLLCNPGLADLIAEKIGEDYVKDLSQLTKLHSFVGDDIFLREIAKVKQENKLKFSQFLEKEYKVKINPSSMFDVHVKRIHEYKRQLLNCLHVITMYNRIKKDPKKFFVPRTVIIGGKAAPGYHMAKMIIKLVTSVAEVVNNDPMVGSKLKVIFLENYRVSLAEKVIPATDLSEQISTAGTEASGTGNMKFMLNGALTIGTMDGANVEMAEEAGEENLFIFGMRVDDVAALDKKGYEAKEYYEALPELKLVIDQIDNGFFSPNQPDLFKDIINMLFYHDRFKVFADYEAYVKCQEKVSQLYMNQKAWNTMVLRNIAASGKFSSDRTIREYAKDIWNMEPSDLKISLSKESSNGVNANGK
Put plainly: Glycogen phosphorylase inhibitor in 8, 16 and 48 hr fasted rats. The test is classed as in vivo. Particulars: for reduction in rates of endogenous glucose production: 5 mg/kg IV, 2 hr. How it is done: 8, 16, and 48 hr fasted rats were injected with a small molecule inhibitor of glycogen phosphorylase, 1-(3-(3-(2-Chloro-4,5-difluorobenzoyl) ureido)-4-methoxyphenyl)-3-methylurea (Sigma #361515; 5 mg/kg IV) and a tracer infusion of [2,3,3,3-^2H4]alanine ([…]prime for 5 min and […] continuous) and [3-^3H]glucose (0.3 μCi/min prime for 5 min and 0.3 μCi/min continuous) as well as [^13C4] β-hydroxybutyrate, [1,1,2,3,3-^2H5]glycerol, and [^13C16]palmitate at the rates listed in Table 9, for 120 min. Blood samples were obtained before (time zero) and 120 min after treatment with the glycogen phosphorylase inhibitor for measurement of turnover rates and plasma hormone/substrate concentrations. Hepatic acetyl-CoA content was altered by treatment with a CPT-1 inhibitor (etomoxir, 8 mg/kg) or an ATGL inhibitor (atglistatin, […]) in 0, 6, 16, and 48 hr fasted rats. Both agents were solubilized by suspending the drug in 4% ethanol/96% normal saline, heating to 60° C., and sonicating, and were cooled to room temperature before they were injected intraperitoneally. […] In these animals plasma glucose concentrations were measured every 15 minutes and a variable infusion of 20% glucose (Pfizer Hospira, Lake Forest, Ill.) was used to maintain plasma glucose concentrations ˜3.6-3.7 mM. The physiologic role of glucocorticoids was assessed in 6 and 48 hr fasted rats by treatment with a glucocorticoid receptor antagonist, mifepristone. Following a 2 hr tracer infusion at the rates described above to assess fatty acid, glycerol, glucose, and β-hydroxybutyrate turnover, rats were injected with mifepristone (40 mg/kg) IV. The tracer infusion was continued and the tracer of each of the above substrates was again measured 2 hr after treatment with mifepristone.
All whole-body substrate turnover rates were calculated using the equation Turnover=([Tracer APE/Plasma APE]−1)*Infusion rate, where APE designates the atom percent enrichment measured by mass spectrometry as described below (Biochemical Analysis). All chemicals used for flux analysis were obtained from SIGMA. Turnover of glucose, glycerol, and β-hydroxybutyrate were determined by gas chromatography-mass spectrometry (GC-MS). Briefly, both glucose and glycerol were deprotonized with 5 volumes of methanol, derivitized with 3 volumes of 1:1 acetic anhydride:pyridine, heated to 65° C. for 20 min, and 1 volume of methanol was added, then GC-MS was used in CI mode to measure glucose enrichment and EI mode to measure glycerol enrichment, with turnover calculated using the equation above. β-Hydroxybutyrate was deprotonized with 5 volumes of methanol and derivitized with 3 volumes of n-butanol 4N HCl, after which the samples were heated to 65° C. for 60 min, evaporated under N2 gas, and re-suspended in […] of trifluoroacetic acid:methylene chloride (1:7). Fatty acid turnover was measured by determining the plasma palmitate enrichment by GC-MS. Samples were prepared for measurements of palmitate enrichment by evaporating […] plasma, dissolving in […] 1:1 chloroform:methanol and derivitizing with […] boron trifluoride/methanol, then heating to 100° C. for 5 min, adding 2 mL pentane and 1 mL water, and centrifuging at low speed for 5 min. […] Alanine turnover was determined in rats infused with [2,3,3,3-^2H4]alanine by preparing samples to measure alanine enrichment by GC/MS (CI mode) using the same protocol as was employed to measure β-hydroxybutyrate enrichment.

The mark [2] stands for this setting: short-term fasted rats (8 and 16 hr).

In the case of `Cn1c(=O)c2c(ncn2C)n(C)c1=O` [caffeine], in test [1], the “glucagon-stimulated VPC flux” value is “inhibited”, the glucagon-stimulated glucose production entry is on record as “inhibited” and the “effect of glucagon to stimulate intrahepatic lipolysis” value (shortened to “effect of glucagon”) is listed as “abrogated”.

For `COc1ccc(S(=O)(=O)N(CCO)c2ccccc2CN(C)C/C=C/c2ccc(Cl)cc2)cc1` [KN-93], in test [1], the glucagon-stimulated glucose production result is on record as “abrogated” and the “effect of glucagon” value is reported as “abrogated”.

In the case of `CCCCCCCCCCCCCCCCCCOCC(COP(=O)([O-])OCC[N+](C)(C)C)OC` (stereo not drawn) [ET-18-OCH3], in test [1], the “glucagon-stimulated VPC flux” value was “inhibited”, the glucagon-stimulated glucose production entry is given as “inhibited” and the “effect of glucagon” value is recorded as “abrogated”.

Regarding insulin, in test [1] (isolated hepatocytes with insulin, unaltered in InsP3R-I KO), the “glucose production and VPC flux” value is reported as “suppress”.

On to `C/C=C(/C)C(=O)O[C@H]1C(C)=C2[C@H]([C@@H]1OC(=O)CCCCCCC)[C@@](C)(OC(C)=O)C[C@H](OC(=O)CCC)[C@@]1(O)[C@H]2OC(=O)[C@@]1(C)O` [thapsigargin], for which, in test [1], the “glucagon-stimulated VPC flux” value is recorded as “inhibited”, the glucagon-stimulated glucose production result is listed as “inhibited” and the “effect of glucagon” value is recorded as “abrogated”.

Turning to `CNC(=O)Nc1ccc(OC)c(NC(=O)NC(=O)c2cc(F)c(F)cc2Cl)c1` [glycogen phosphorylase inhibitor, 1-(3-(3-(2-Chloro-4,5-difluorobenzoyl)ureido)-4-methoxyphenyl)-3-methylurea], on glycogen phosphorylase (8- and 16-hr fasted rats), the “plasma ACTH concentrations” value is given as “increases”, the plasma corticosterone concentrations result was “increases” and the plasma leptin concentrations entry is reported as “reductions”. Besides, at glycogen phosphorylase (8-hr fasted rats), the “reduction in rates of endogenous glucose production” value stood at 60%. The “plasma FGF-21 concentrations” value on glycogen phosphorylase (8 and 16-hr fasted rats) is recorded as “increased”. Besides, on glycogen phosphorylase (8 and 16 hr fasted rats), the plasma glucose concentrations result is “lowered”, the plasma insulin concentrations entry is given as “lowered”, the plasma lactate concentrations entry is listed as “lowered” and the whole-body glucose turnover result is “lowered”. Also, the “reduction in rates of endogenous glucose production” value on glycogen phosphorylase (16-hr fasted rats) came to 30%. Further, on glycogen phosphorylase (48-hr fasted rats), the “plasma glucose, lactate, and insulin concentrations and whole-body glucose turnover” value is “not in the 48-hr fasted rats”; the “rates of endogenous glucose production” value is “no difference”. Moreover, the “plasma glucagon and catecholamine concentrations” value on glycogen phosphorylase (fasted rats) is “not altered”. Moreover, on glycogen phosphorylase (setting [2]), the “rates of WAT lipolysis” value is listed as “increased” and the “rates of alanine turnover” value is listed as “decreased”.

On to `NCCOB(c1ccccc1)c1ccccc1` [2-APB, 2-aminoethoxydiphenyl borate], for which, in test [1], the “glucagon-stimulated VPC flux” value is “inhibited”, the glucagon-stimulated glucose production entry is “inhibited” and the “effect of glucagon” value is on record as “abrogated”.

For `COc1ccc2c(c1)CC[C@@H]1[C@@H]2CC[C@]2(C)[C@@H](NCCCCCCN3C(=O)C=CC3=O)CC[C@@H]12` [U-73122], in test [1], the “glucagon-stimulated VPC flux” value is given as “inhibited”, the glucagon-stimulated glucose production result is recorded as “inhibited” and the “effect of glucagon” value was “abrogated”.
